Experimental data as given in patent US20100160369A1, “S1P1 Agonists and Methods of Making And Using” (EXELIXIS, INC., priority 2008, published 2010).
Where a name gives a salt, the structure may show the parent alone.

How the values were obtained:
Type in all cases: cell-based
S1P1 [1] = target: T1, S1P1 (Homo sapiens, UniProt P21453); assay: Tango β-arrestin Recruitment Assay in HEK293 cells (Assay 2a); set-up: linker with TEV protease (N1a) cleavage site (C); host or cells: HEK293, transiently transfected; conditions: Tango β-arrestin Recruitment Assay, read-out: Assay 2a EC50
Text: For the Tango™ β-arrestin recruitment assay, the cytoplasmic C-terminus of S1P1 is tethered to the tTA transcriptional activator with a linker that contains a cleavage site for the N1a protease from tobacco etch virus (TEV protease). The C-terminus of the human β-arrestin2 protein is fused to TEV protease. Binding of an agonist recruits the β-arrestin-TEV fusion protein to the receptor resulting in cleavage of the linker and release of tTA to enter the nucleus and subsequently activate a tTA-dependent luciferase reporter gene.
Frozen HEK293 cells transiently transfected with receptor cDNAs for S1P1 (Invitrogen) were thawed and suspended in 10 mL of Pro293a-CDM culture medium (Invitrogen) supplemented with 4 mM L-Glutamine (Invitrogen), 1× Pen/Strep (100 units/mL penicillin and 100 μg/mL streptomycin, Invitrogen) and 0.1% fatty acid free BSA (Sigma-Aldrich). Cells were added to the wells of a 384-well white opaque bottom assay plate (PerkinElmer) at 3,000-6,000 cells per well and the plate was incubated for approximately 4 h in a 37° C. incubator. Test compounds were tested at maximum concentrations of 10 μM for the agonist assays. Compounds were diluted in DMSO (10 concentration points, 3-fold each) and added to the assay plate at a 1% final DMSO concentration. For each compound, there were duplicate assay plates and each assay plate had duplicate wells per concentration point. The plate was incubated at 37° C. for 30 min. The efficacy control was 5 μM S1P (Avanti). Following agonist addition, the assay plates were incubated in a 37° C. incubator for 16-18 h. Luciferase assay reagent was added and luminescence measured in an EnVision plate reader (PerkinElmer). To determine agonist activity, percent activity was calculated as [(test compound−background)/(positive control−background)* 100], where background is the luminescence of the DMSO alone control and the positive control is the luminescence from cells incubated with the efficacy control 5 μM S1P. The percent activities were plotted against compound concentration to determine EC50 using XLFit (IDBS).
Assay 1 is the CNG cAMP Assay as described in Biological Example 1. Assay 2a and 2b are the Tango™ β-arrestin Recruitment Assay in HEK293 and U2OS cells, respectively, as described in Biological Example 2. Assay 3a is the hS1P1R GTPγS Binding Assay as described in Biological Example 3. Assay 3b is the GTP-Eu Binding Assay as described in Biological Example 3. EC50's were measured unless otherwise noted. […] In the table, “nt” means the Compound was not tested and “no” means the compound was tested but had no measurable activity under the assay conditions employed.
Target sequence in this assay (P21453 whole entry, the tested form may be a part): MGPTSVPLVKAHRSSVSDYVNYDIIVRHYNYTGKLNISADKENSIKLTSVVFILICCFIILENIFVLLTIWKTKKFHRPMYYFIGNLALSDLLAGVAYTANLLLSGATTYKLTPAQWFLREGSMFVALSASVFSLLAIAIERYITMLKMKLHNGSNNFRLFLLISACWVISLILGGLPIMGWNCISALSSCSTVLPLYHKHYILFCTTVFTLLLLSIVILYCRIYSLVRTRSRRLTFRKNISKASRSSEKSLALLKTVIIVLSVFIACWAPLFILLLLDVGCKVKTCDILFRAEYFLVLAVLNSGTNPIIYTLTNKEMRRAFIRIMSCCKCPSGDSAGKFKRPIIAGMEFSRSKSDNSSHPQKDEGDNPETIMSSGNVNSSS
Target sequence in this assay (P32121 whole entry partner, the tested form may be a part): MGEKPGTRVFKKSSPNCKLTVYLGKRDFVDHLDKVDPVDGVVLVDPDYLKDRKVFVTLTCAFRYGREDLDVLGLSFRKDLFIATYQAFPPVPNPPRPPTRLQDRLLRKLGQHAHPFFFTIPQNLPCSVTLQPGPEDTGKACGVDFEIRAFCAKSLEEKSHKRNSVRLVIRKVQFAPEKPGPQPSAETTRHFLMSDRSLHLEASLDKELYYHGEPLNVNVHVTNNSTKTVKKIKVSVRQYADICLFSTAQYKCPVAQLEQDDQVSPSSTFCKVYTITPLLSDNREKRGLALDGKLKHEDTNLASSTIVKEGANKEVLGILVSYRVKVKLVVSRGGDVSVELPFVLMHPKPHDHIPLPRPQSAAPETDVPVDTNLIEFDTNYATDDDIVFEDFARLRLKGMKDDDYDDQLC

S1P1 [2] = target: T1, S1P1; assay: Tango β-arrestin Recruitment Assay in U2OS cells (Assay 2b); set-up: linker with TEV protease (N1a) cleavage site (C); conditions: Tango β-arrestin Recruitment Assay
Method in brief: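 Agonist EC50 from percent activity relative to 1 μM S1P efficacy control, using background-subtracted 460/530 nm emission ratios. Compounds (max 1 μM, ten 3-fold dilutions) incubated overnight at 37 °C with serum-starved S1P1 U2OS reporter cells, followed by 2 h β-lactamase reagent at room temperature.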
Target sequence in this assay (P21453 whole entry, the tested form may be a part): as the sequence (P21453 whole entry, the tested form may be a part) above
Target sequence in this assay (P32121 whole entry partner, the tested form may be a part): as the sequence (P32121 whole entry partner, the tested form may be a part) above

S1P1 [3] = target: T1, S1P1; assay: CNG cAMP Assay (Assay 1); set-up: host or cells: HEK293 cells expressing the CNG channel; conditions: read-out: Assay 1 EC50
Method in brief: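 cAMP-gated CNG membrane-potential read-out (350/590 nm, T90/T0 ratio) in S1P1/CNG HEK293 cells after 90 min with compound plus NECA 500 nM, S1P 10 nM (EC95), Ro 20-1724 25 μM. Ten 3-fold points from 10 μM, 1.8% DMSO; percent activity vs NECA-only control gives EC50.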
Target sequence in this assay (P21453 whole entry, the tested form may be a part): as the sequence (P21453 whole entry, the tested form may be a part) above

[4] = footnote 1: Relative EC50 was measured, read-out: Assay 2b relative EC50

SMILES	EC50 (S1P1 [1]) [nM]	EC50 (S1P1 [2]; read-out: Assay 2b EC50) [nM]	EC50 (S1P1 [3]) [nM]	EC50 (S1P1 [2]; [4]) [nM]
NC(CO)COc1cc(Cl)c(-c2noc(-c3cn4cc(C(F)(F)F)cc(Cl)c4n3)n2)cc1Cl (stereo not shown) [Example 303, 2-amino-3-[(2,5-dichloro-4-{5-[8-chloro-6-(trifluoromethyl)imidazo[1,2-a]pyridin-2-yl]-1,2,4-oxadiazol-3-yl}phenyl)oxy]propan-1-ol]	≤ 100	≤ 100		
CC(CO)Oc1cc(Cl)c(-c2nnc(-c3cn4cc(C(F)(F)F)cc(Cl)c4n3)s2)cc1Cl (stereo not shown) [Example 251, 2-[(2,5-dichloro-4-{5-[8-chloro-6-(trifluoromethyl)imidazo[1,2-a]pyridin-2-yl]-1,3,4-thiadiazol-2-yl}phenyl)oxy]propan-1-ol]		≤ 100	≤ 100	
OCC(O)COc1ccc(-c2nnc(-c3cn4cc(C(F)(F)F)cc(Cl)c4n3)s2)c(Cl)c1 (stereo not shown) [Example 245, 3-[(3-chloro-4-{5-[8-chloro-6-(trifluoromethyl)imidazo[1,2-a]pyridin-2-yl]-1,3,4-thiadiazol-2-yl}phenyl)oxy]propane-1,2-diol]		100 to 500	≤ 100	
C[C@@H](O)COc1cc(Cl)c(-c2noc(-c3cn4cc(C(F)(F)F)cc(Br)c4n3)n2)cc1Cl [Example 312, (2R)-1-[(4-{5-[8-bromo-6-(trifluoromethyl)imidazo[1,2-a]pyridin-2-yl]-1,2,4-oxadiazol-3-yl}-2,5-dichlorophenyl)oxy]propan-2-ol]	≤ 100	≤ 100		
CC(CO)Oc1cc(Cl)c(-c2nc(-c3cn4cc(C(F)(F)F)cc(Cl)c4n3)no2)cc1Cl (stereo not shown) [Example 227, 2-[(2,5-dichloro-4-{3-[8-chloro-6-(trifluoromethyl)imidazo[1,2-a]pyridin-2-yl]-1,2,4-oxadiazol-5-yl}phenyl)oxy]propan-1-ol]		≤ 100	≤ 100	
NC(CO)COc1cc(Cl)c(-c2nnc(-c3cn4cc(C(F)(F)F)cc(Cl)c4n3)s2)cc1F (stereo not shown) [Example 321, 2-amino-3-[(5-chloro-4-{5-[8-chloro-6-(trifluoromethyl)imidazo[1,2-a]pyridin-2-yl]-1,3,4-thiadiazol-2-yl}-2-fluorophenyl)oxy]propan-1-ol]	≤ 100	≤ 100		
N[C@H](CO)COc1cc(Cl)c(-c2nnc(-c3cn4cc(C(F)(F)F)cc(Cl)c4n3)s2)cc1F [Example 334, (2R)-2-Amino-3-[(5-chloro-4-{5-[8-chloro-6-(trifluoromethyl)imidazo[1,2-a]pyridin-2-yl]-1,3,4-thiazol-2-yl}-2-fluorophenyl)oxy]propan-1-ol]	≤ 100	≤ 100		
CC(Oc1cc(Cl)c(-c2nnc(-c3cn4cc(C(F)(F)F)cc(Cl)c4n3)s2)cc1F)C(=O)O (stereo not shown) [Example 250, 2-[(5-chloro-4-{5-[8-chloro-6-(trifluoromethyl)imidazo[1,2-a]pyridin-2-yl]-1,3,4-thiadiazol-2-yl}-2-fluorophenyl)oxy]propanoic acid]		100 to 500	≤ 100	
CC(=O)COc1cc(Cl)c(-c2noc(-c3cn4cc(C(F)(F)F)cc(Cl)c4n3)n2)cc1Cl [Example 182]	≤ 100	≤ 100		
OC(COc1cc(Cl)c(-c2noc(-c3cn4cc(C(F)(F)F)cc(Cl)c4n3)n2)cc1Cl)C(F)(F)F (stereo not shown) [Entry 77]	≤ 100	≤ 100		
CC(O)(CO)COc1cc(Cl)c(-c2noc(-c3cn4cc(C(F)(F)F)cc(Cl)c4n3)n2)cc1Cl (stereo not shown) [Example 330, 3-[(2,5-dichloro-4-{5-[8-chloro-6-(trifluoromethyl)imidazo[1,2-a]pyridin-2-yl]-1,2,4-oxadiazol-3-yl}phenyl)oxy]-2-methylpropane-1,2-diol]	≤ 100	≤ 100		
C[C@H](O)COc1cc(Cl)c(-c2noc(-c3cn4cc(C(F)(F)F)cc(Br)c4n3)n2)cc1Cl [Example 313, (2S)-1-[(4-{5-[8-bromo-6-(trifluoromethyl)imidazo[1,2-a]pyridin-2-yl]-1,2,4-oxadiazol-3-yl}-2,5-dichlorophenyl)oxy]propan-2-ol]	≤ 100	≤ 100		
O=P(O)(O)OC[C@H](O)COc1cc(Cl)c(-c2noc(-c3cn4cc(C(F)(F)F)cc(Cl)c4n3)n2)cc1Cl [Example 322, (2R)-3-[(2,5-dichloro-4-{5-[8-chloro-6-(trifluoromethyl)imidazo[1,2-a]pyridin-2-yl]-1,2,4-oxadiazol-3-yl}phenyl)oxy]-2-hydroxypropyl dihydrogen phosphate]	≤ 100	≤ 100		
C[C@H](COc1cc(Cl)c(-c2noc(-c3cn4cc(C(F)(F)F)cc(Cl)c4n3)n2)cc1Cl)OS(=O)(=O)O [Example 331, (1R)-2-[(2,5-dichloro-4-{5-[8-chloro-6-(trifluoromethyl)imidazo[1,2-a]pyridin-2-yl]-1,2,4-oxadiazol-3-yl}phenyl)oxy]-1-methylethyl hydrogen sulfate]		≤ 100		
NC(CO)COc1cc(Cl)c(-c2nc(-c3cn4cc(C(F)(F)F)cc(Cl)c4n3)no2)cc1Cl (stereo not shown) [Example 80, 2-amino-3-[(2,5-dichloro-4-{3-[8-chloro-6-(trifluoromethyl)imidazo[1,2-a]pyridin-2-yl]-1,2,4-oxadiazol-5-yl}phenyl)oxy]propan-1-ol]		≤ 100		
O=C(COc1cc(Cl)c(-c2noc(-c3cn4cc(C(F)(F)F)cc(Cl)c4n3)n2)cc1Cl)C(F)(F)F [Entry 18]		≤ 100		
CS(=O)(=O)CCOc1cc(Cl)c(-c2noc(-c3cn4cc(C(F)(F)F)cc(Cl)c4n3)n2)cc1Cl [Example 333, 8-chloro-2-[3-(2,5-dichloro-4-{[2-(methylsulfonyl)ethyl]oxy}phenyl)-1,2,4-oxadiazol-5-yl]-6-(trifluoromethyl)imidazo[1,2-a]pyridine]				100 to 500
CC(N)COc1cc(Cl)c(-c2nnc(-c3cn4cc(C(F)(F)F)cc(Cl)c4n3)s2)cc1F (stereo not shown) [Example 298, 1-[(5-chloro-4-{5-[8-chloro-6-(trifluoromethyl)imidazo[1,2-a]pyridin-2-yl]-1,3,4-thiadiazol-2-yl}-2-fluorophenyl)pxy]propan-2-amine]				100 to 500
OCC(CO)Oc1cc(Cl)c(-c2noc(-c3cn4cc(C(F)(F)F)cc(Cl)c4n3)n2)cc1Cl [Example 307, 2-[(2,5-dichloro-4-{5-[8-chloro-6-(trifluoromethyl)imidazo[1,2-a]pyridin-2-yl]-1,2,4-oxadiazol-3-yl}phenyl)oxy]propane-1,3-diol]		≤ 100		
O=C(O)C1CC1c1cc(Cl)c(-c2noc(-c3cn4cc(C(F)(F)F)cc(Cl)c4n3)n2)cc1Cl (stereo not shown) [Example 211, 2-(2,5-dichloro-4-{5-[8-chloro-6-(trifluoromethyl)imidazo[1,2-a]pyridin-2-yl]-1,2,4-oxadiazol-3-yl}phenyl)cyclopropanecarboxylic acid]		≤ 100		
Oc1cc(Cl)c(-c2nnc(-c3cn4cc(C(F)(F)F)cc(Cl)c4n3)s2)cc1Cl [Example 224, 2,5-dichloro-4-{5-[8-chloro-6-(trifluoromethyl)imidazo[1,2-a]pyridin-2-yl]-1,3,4-thiadiazol-2-yl}phenol]		100 to 500	≤ 100	
C[C@@H](COc1cc(Cl)c(-c2noc(-c3cn4cc(C(F)(F)F)cc(Cl)c4n3)n2)cc1Cl)OP(=O)(O)O [Entry 14]		≤ 100		
COCC(O)COc1cc(Cl)c(-c2noc(-c3cn4cc(C(F)(F)F)cc(Cl)c4n3)n2)cc1Cl (stereo not shown) [Example 318, 1-[(2,5-dichloro-4-{5-[8-chloro-6-(trifluoromethyl)imidazo[1,2-a]pyridin-2-yl]-1,2,4-oxadiazol-3-yl}phenyl)oxy]-3-(methyloxy)propan-2-ol]		≤ 100		
